# Tests used:
# [1] = biological target: ovoperoxidase (Strongylocentrotus purpuratus, UniProt O44391); test: CN--resistant NAD(P)H-O2 oxidoreductase (oxidase) activity of ovoperoxidase, thiol cofactor; assay type: biochemical; settings: for cofactor for the CN--resistant oxidase reaction: in place of ovothiol
# Procedure: NAD(P)H--02 oxidoreductase activity was measured by following the oxidation of reduced pyridine nucleotides spectrophotometrically at 360 nm in a Gilford 420 spectrophotometer. The off-peak wavelength of 360 nm for reduced pyridine nucleotides allowed the use of higher concentrations in a 1.0 cm pathlength cuvette. Assays were conducted in a 1 ml volume containing 50 mM NaCl, 20mM Hepes, 20 mM Tris, at pH 8.0 and 25° C., to which was added for routine assays 0.4 mM NADH, 0.5 mM MnCl2, 1 mM NaCN, 134 nM ovoperoxidase, and the appropriate amount of ovothiol preparation. One unit of activity is defined as the amount of ovothiol needed to stimulate consumption of 1.0 nanomoles NADH/min. […] Assays were initiated with NADH unless otherwise specified.
# [2] = tested on: xanthine/xanthine oxidase system; settings: cited from earlier work
# [3] = Trapping of tyrosyl radicals: photochemical dityrosine formation
# Description: The known photochemical crosslinking of tyrosine (Amado, R., et al., Methods Enzymol. 107:377, 1984; Malencik, D. A., and S. R. Anderson, Biochem. 26:695, 1987; Joschek, H.-I., and S. I. Miller, J. Am. Chem. Soc. 88:3273, 1986) may be used as an assay for tyrosyl radical scavenging ability. This reaction proceeds by photochemical excitation of tyrosine, followed by an ejection of an electron to yield a tyrosyl radical. The ejected electron is apparently scavenged by oxygen, as evidenced by the augmentation of the tyrosine crosslinking rate on addition of SOD (scavenging 02^.-, thus slowing the back reaction of tyrosyl radical and 02^.- to yield tyrosine and 02). The tyrosyl radicals couple with one another to yield dityrosine, which is detected by its characteristic fluorescence. […] This is strong evidence that ovothiol can act as an efficient tyrosyl radical scavenger. This assay is mechanistically relatively simple technique for assaying antioxidants.
# [4] = Inhibition of pyrogallol autooxidation
# Description: The inhibition of the air oxidation of pyrogallol has been used previously as an assay for superoxide dismutase (SOD) (Marklund, S., and G. Marklund, Eur. J. Biochem. 47:469, 1974; Roth, E. F. Jr., and H. S. Gilbert, Anal. Biochem. 137:50, 1984).
# [5] = Non-enzymic direct reaction of thiol with H2O2; assay type: physicochemical; settings: metal-free solutions containing EDTA; for second order rate constant for reaction with H2O2: non-enzymic
# Procedure: The non-enzymic reaction of OSH and H2 02 was measured and compared with GSH reacting with H2 02.
# These preliminary studies were done in metal-free solutions containing EDTA, so additional experiments can compare the effect of ions of Fe, Mn, and Cu, as well as certain liganded derivatives such as hematin and vitamin B12, on the reaction. […] Oxidation of ovothiol can be monitored by its absorbance change at 310 nm (Turner et al., 1986) and glutathione by coupling the reaction to glutathione reductase and NADPH oxidation.
# [6] = tested on: cultured myoblasts; test: Toxicity to cultured myoblasts (colony formation, 3H-TdR incorporation); assay type: cell-based; settings: administered as the disulfide
# [7] = Reduction of Fremy's salt nitroxide radical; settings: pH 7.0
# Description: Fremy's salt (K^+- 03 SN(0^.)SO3^- K^+) is a stable, commercially available nitroxide radical. Reduction of this radical can be followed by UV or ESR. […] In this assay, a relatively large difference was seen between two aromatic thiols, H3 and thiophenol.
# [8] = tested on: xanthine/xanthine oxidase system; test: Xanthine oxidase-dependent oxyradical production, thiol oxidation; assay type: biochemical
# Description: Xanthine oxidase with both acetaldehyde and xanthine as substrates (both xanthine and its product uric acid react with OH^.) are used to determine whether the aromatic thiols or glutathione are oxidized by this reaction, or whether they inhibit cytochrome C reduction (McCord, J. M., and I. Fridovich, J. Biol. Chem. 244:6049-6054, 1969; Crapo, J. D., et al, Methods in Enzymology 530:382-386, 1977). For example, the ovothiol analogue H3 is oxidized by the xanthine/xanthine oxidase system, and that this can be suppressed by up to 50% by addition of SOD. Since GSH is protected only 20% by SOD in this assay (Wefers, H., and H. Sies, Europ. J. Biochem. 137:2936, 1983; Ross, D., et al., Biochem. Biophys. Acta 841:278, 1983), this implies a higher reactivity of 4-mercaptohistidines toward 02^.-. Differences between the reactions with acetaldehyde and xanthine will implicate OH^. in the process.
# [9] = tested on: sea urchin eggs; test: Toxicity to sea urchin eggs (inhibition of first cellular division after fertilization); assay type: cell-based; settings: administered as the disulfide
# Description: This aspect of the screening program introduces additional complications. For example, certain thiols are toxic to cells (Heinecke, J. W., et al., J. Biol. Chem. 262, 1987; Issels, R., et al., in Superoxide and Superoxide Dismutase in Chemistry, Biology, and Medicine, ed. G. Rotilio, pp. 419-421, Elsevier, N.Y., 1986) because they can autooxidize and produce reactive oxygen intermediates (Misra, H. R., J. Biol. Chem. 249:2151-2155,1974). Thiol toxicity may be due to redox cycling; for example, when cystine is given to cells it damages lipoproteins, apparently by being reduced to cysteine intracellularly then exiting to reoxidize and produce oxygen radicals and cellular damage. When we administered compound H3 (containing the reactive 4-mercaptoimidazole ring without the amino acid side chain) to sea urchin eggs, it was toxic at 2 mM but not at 200 μM (as assessed inhibition of the first cellular division after fertilization). […] We tried compound H3 because we thought it would be permeant, having no charged side chain; we administered it to these cells as the disulfide. We infer that the toxicity was caused by redox cycling, with H3 being taken up, reduced, and the thiol being reoxidized extracellularly to produce reactive oxygen intermediates. […]
# [10] = Reduction of ovothiol disulfide (OSSO) by reduced glutathione; assay type: physicochemical
# Procedure: The redox potential of ovothiol was determined, as were the kinetics for its interaction with glutathione and H2 02. The mid-point potential (E^o') was estimated indirectly by determining the equilibrium in reaction with other known thiol-disulfide equilibria, since direct determination of (E^o') for thiols is typically complicated by artifacts. […] Appropriate corrections were made for the mixed disulfides present at different concentrations of ovothiol and glutathione. E^o' (30^o) for ovothiol was 44 mV positive relative to glutathione, or -0.196 V. Thus, the ΔG^o' for the reduction of ovothiol disulfide (OSSO) by reduced glutathione (GSH) is […], so that at equilibrium reduced ovothiol (OSH) predominates in a mixture of equimolar oxidized ovothiol (OSSO) and reduced glutathione (GSH). From a thermodynamic point of view, ovothiol can be maintained almost entirely in the reduced state by GSH, and thus by NADPH via glutathione reductase, without the need for a specific ovothiol reductase. […] Because reduced glutathione reduces ovothiol, a functional ovothiol reductase reaction exists by coupling reactions and [6]. The second order rate constant for ovothiol reduction by glutathione is 88M^-1 S^-1. We calculate that egg glutathione reductase is sufficient to produce 4.1 pmol GSH/min; with an egg GSH content of 0.9 pmol, it would take only 13 seconds for the egg to regenerate its entire GSH content from GSSG, if NADPH were present (which it is after fertilization). […] In other words, reduction of ovothiol is rapid at the concentrations of glutathione and ovothiol of the egg, and an enzymatic "ovothiol reductase" is not required to catalyze reaction.
# [11] = tested on: eggs; test: Oxygen consumption by eggs; assay type: cell-based, sea urchin
# Description: First, both ovothiol and NAD(P)H are intracellular metabolites, whereas ovoperoxidase is extracellular during the respiratory burst. […] Second, H2 02 is not released stoichiometrically by the ovoperoxidase-oxidase, so this cannot account for the significant concentrations of H2 02 previously detected at fertilization. Third, aminotriazole inhibits both the NAD(P)H oxidase and peroxidase activities of ovoperoxidase, yet has no effect on oxygen consumption by eggs.
# [12] = tested on: fertilized sea urchin eggs; assay type: in vitro ADME
# Procedure: First, the conditions under which ovothiols A or C are transported into the cells of interest are determined using radioactive ovothiol derivatives. For example, by reacting ovothiol A with ^3 H-formaldehyde and reduction by NaBH4, ovothiol A was converted into ^3 H-ovothiol C. […] The km for OSH uptake appears to be higher than for histidines, although the Vmax may be similar. We measure the kinetics of ovothiol uptake into the cells to be studied, in order to identify optimal conditions for transport. We no only use ^3 H-ovothiol C but also synthesize ^3 H-ovothiol A by using ^14 C--HCHO in the abovedescribed chemical synthesis procedure.
# [13] = tested on: sea urchin eggs; test: First cell division of sea urchin eggs after iodoacetamide treatment; assay type: cell-based; settings: for cell division: 0.25 mM iodoacetamide
# Description: The following biological experiment further implicates ovothiol in protection of eggs from H2 02 produced during the respiratory burst. If ovothiol were important in protection, then its absence should lead to embryonic lethality. […] However, iodoacetamide might have reacted with critical proteins (or other components) required for cell division, so that experiment was not definitive in implicating ovothiol. More recently, we added exogeneous catalase to eggs derivatized with iodoacetamide. Catalase should act as a second mechanism for removing H2 02 and partially compensate for the iodoacetamide treatment. The first cell division was blocked for eggs treated with 1.0 mM iodoacetamide prior to the respiratory burst (7% cleavage vs. 90% of control eggs). With catalase present during the respiratory burst, 70% of IAA-treated eggs divided (and 90% of the controls). Pretreatment with 0.25 mM iodoacetamide decreased cleavage to 75%; with exogenous 0.1 mM H2 02 added, cell division occurred in only 2% of these eggs, and with catalase present in 90%. Control eggs (not treated with iodoacetamide) were unaffected by 0.1 mM H2 02.
# [14] = Mid-point redox potential from equilibrium with glutathione thiol-disulfide; assay type: physicochemical; settings: 30°
# Procedure: The redox potential of ovothiol was determined, as were the kinetics for its interaction with glutathione and H2 02. The mid-point potential (E^o') was estimated indirectly by determining the equilibrium in reaction with other known thiol-disulfide equilibria, since direct determination of (E^o') for thiols is typically complicated by artifacts. […] Appropriate corrections were made for the mixed disulfides present at different concentrations of ovothiol and glutathione. E^o' (30^o) for ovothiol was 44 mV positive relative to glutathione, or -0.196 V. Thus, the ΔG^o' for the reduction of ovothiol disulfide (OSSO) by reduced glutathione (GSH) is -0.386 kcal, so that at equilibrium reduced ovothiol (OSH) predominates in a mixture of equimolar oxidized ovothiol (OSSO) and reduced glutathione (GSH). From a thermodynamic point of view, ovothiol can be maintained almost entirely in the reduced state by GSH, and thus by NADPH via glutathione reductase, without the need for a specific ovothiol reductase. […] Because reduced glutathione reduces ovothiol, a functional ovothiol reductase reaction exists by coupling reactions and [6]. The second order rate constant for ovothiol reduction by glutathione is 88M^-1 S^-1. […]
# ovoperoxidase, sequence (O44391 entry or part of it): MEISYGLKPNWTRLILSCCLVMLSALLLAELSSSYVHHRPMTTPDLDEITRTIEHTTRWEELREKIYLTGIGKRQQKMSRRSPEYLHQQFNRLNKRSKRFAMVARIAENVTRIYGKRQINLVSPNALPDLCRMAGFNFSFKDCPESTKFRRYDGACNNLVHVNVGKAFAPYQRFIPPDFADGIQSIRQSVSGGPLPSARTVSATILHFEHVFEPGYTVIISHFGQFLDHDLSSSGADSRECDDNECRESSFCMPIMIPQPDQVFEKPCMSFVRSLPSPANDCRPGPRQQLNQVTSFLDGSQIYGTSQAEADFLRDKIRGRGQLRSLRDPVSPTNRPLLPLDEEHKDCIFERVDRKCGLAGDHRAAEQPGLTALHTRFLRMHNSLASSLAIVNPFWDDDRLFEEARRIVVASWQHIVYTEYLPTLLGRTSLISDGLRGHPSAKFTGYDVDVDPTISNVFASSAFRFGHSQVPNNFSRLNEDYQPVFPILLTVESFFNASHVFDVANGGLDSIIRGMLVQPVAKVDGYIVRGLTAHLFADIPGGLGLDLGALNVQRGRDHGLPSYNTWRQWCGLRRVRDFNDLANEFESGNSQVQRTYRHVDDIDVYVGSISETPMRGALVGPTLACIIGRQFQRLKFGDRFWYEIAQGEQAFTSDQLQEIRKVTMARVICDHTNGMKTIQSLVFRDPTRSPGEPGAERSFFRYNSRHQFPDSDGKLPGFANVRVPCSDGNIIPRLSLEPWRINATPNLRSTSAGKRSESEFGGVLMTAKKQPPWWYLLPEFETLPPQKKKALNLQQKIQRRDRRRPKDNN
compound,measurement,setting,value
CC(C)(COP(=O)(O)OP(=O)(O)OC[C@H]1O[C@@H](n2cnc3c(N)ncnc32)[C@H](O)[C@@H]1OP(=O)(O)O)[C@@H](O)C(=O)NCCC(=O)NCCS [Coenzyme A],cofactor for the CN--resistant oxidase reaction,[1],could not be replaced by
"N[C@@H](CCC(=O)N[C@@H](CS)C(=O)NCC(=O)O)C(=O)O [GSH, glutathione]",cofactor for the CN--resistant oxidase reaction,[1],could not be replaced by
same,protection by SOD in this assay,[2],20%
same,inhibition of photochemical dityrosine formation,[3],at least an order of magnitude less effective
same,"concentration needed for effect, relative to H3",[4],50 fold
same,effect on air oxidation of pyrogallol,[4],more modest inhibitory effect
same,second order rate constant for reaction with H2O2,[5],1.5 M^-1 S^-1
"Cc1c(S)ncn1C [H3, 1,5-dimethyl-4-mercaptoimidazole]",colony formation of cultured myoblasts,[6]; 200 μM,inhibited colony formation
same,IC50,"[6]; Myoblast, cultured myoblasts, read-out: half-maximal effect on 3H-TdR incorporation",15 µM
same,rate of reduction of Fremy's salt relative to glutathione,[7],~40 fold
same,rate of reduction of Fremy's salt relative to thiophenol,[7],roughly ten-fold faster
same,"rate of reduction of Fremy's salt, rank",[7],fastest radical scavenger
same,oxidation by the xanthine/xanthine oxidase system,[8],is oxidized
same,suppression of oxidation by addition of SOD,[8]; xanthine/xanthine oxidase,up to 50%
same,inhibition of photochemical dityrosine formation,[3],strong inhibitor
same,effect on dityrosine formation at 1 μM,[3]; 1 μM,slowing the reaction for several minutes
same,effect on air oxidation of pyrogallol,[4],induces a time lag
same,toxicity to sea urchin eggs at 200 μM,[9]; 200 μM,not
same,toxicity to sea urchin eggs at 2 mM,[9]; 2 mM,toxic
CN(C)[C@@H](Cc1c(SSc2ncn(C)c2C[C@@H](C(=O)O)N(C)C)ncn1C)C(=O)O [OSSO],ΔG°' for reduction of ovothiol disulfide (OSSO) by reduced glutathione (GSH),[10],-0.386 kcal
same,t1/2 for reduction of OSSO to OSH,[10]; normal cellular GSH levels,1.6 s
Nc1nc[nH]n1 [aminotriazole],effect on oxygen consumption by eggs,[11],no effect
N[C@@H](CS)C(=O)O [cysteine],cofactor for the CN--resistant oxidase reaction,[1],could not be replaced by
C[N+](C)(C)[C@@H](Cc1c[nH]c(=S)[nH]1)C(=O)[O-] [ergothioneine],cofactor for the CN--resistant oxidase reaction,[1],could not be replaced by
N[C@@H](Cc1c[nH]cn1)C(=O)O [histidine],uptake by fertilized sea urchin eggs,[12],38 fmol/egg/hr
NC(=O)CI [iodoacetamide],cell division,"[13]; 0.1 mM H2O2, catalase present",90%
same,cell division,[13]; exogenous 0.1 mM H2O2 added,2%
same,cleavage (first cell division),[13]; 1.0 mM iodoacetamide prior to respiratory burst,7%
same,eggs divided,"[13]; 1.0 mM iodoacetamide, catalase present during respiratory burst",70%
same,cleavage,[13]; pretreatment with 0.25 mM iodoacetamide,75%
"CN(C)[C@@H](Cc1c(S)ncn1C)C(=O)O [ovothiol C, 1-methyl-N^α N^α -dimethyl-4-thiolhistidine]",km for uptake compared with histidines,[12],higher
same,uptake by fertilized sea urchin eggs,[12],6 fmol/egg/hr
same,ovothiol concentration giving maximal oxidase activity,[1],1 mM
same,E°' mid-point potential,[14],-0.196 V
same,E°' relative to glutathione (positive),[14],44 mV
same,second order rate constant for ovothiol reduction by glutathione,[10],88 M^-1 S^-1
same,rate with H2O2 relative to reduced glutathione,[5],~2.3 fold
same,second order rate constant for reaction with H2O2,[5],3.34 M^-1 S^-1
same,second order rate constant for reaction with H2O2,[5]; listed as OSH,3.3 M^-1 S^-1
Sc1ccccc1 [thiophenol],effect on air oxidation of pyrogallol,[4],"similar, though not identical"
catalase,inhibition of the NAD(P)H oxidase activity of ovoperoxidase,[1],inhibited
superoxide dismutase,inhibition of the NAD(P)H oxidase activity of ovoperoxidase,[1],inhibited

# Reference: patent publication US4898878A, “Antioxidant thiohistidine compounds” (priority 1987, dated 1990)
